Measured values published in patent publication US5750354A, “Lipoxin transport system and uses therefor” (priority 1994, dated 1998).
Several values for one entry are separate records, joined by “and”; a condition that tells them apart may be missing. Equal values may be shown once. Entries after “also recorded” stand apart in the source; their conditions may differ. Each block holds one compound with its values, some of them ahead of it.

Experiments:
[1] = target: T1, specific lipoxin receptors (Homo sapiens, UniProt P25090); experiment: [3H]LXA4 ligand binding to human neutrophils
T1 sequence (P25090 1-351): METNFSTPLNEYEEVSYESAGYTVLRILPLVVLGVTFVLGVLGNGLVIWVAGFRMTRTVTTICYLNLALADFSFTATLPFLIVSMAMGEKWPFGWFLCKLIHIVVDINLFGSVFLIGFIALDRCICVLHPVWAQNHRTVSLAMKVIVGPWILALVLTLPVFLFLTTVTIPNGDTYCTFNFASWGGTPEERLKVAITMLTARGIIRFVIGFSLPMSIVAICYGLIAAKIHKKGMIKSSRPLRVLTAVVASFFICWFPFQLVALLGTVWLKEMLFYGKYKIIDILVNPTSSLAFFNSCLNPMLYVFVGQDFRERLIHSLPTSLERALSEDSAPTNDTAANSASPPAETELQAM
Procedure: (§1) Influx rates were calculated by fitting the data points to a single exponential equation (Eq. 1). Results have been taken from three experiments based upon duplicate determinations. […] Specific binding was taken as the difference between total and non-specific binding. […] Results are from three separate experiments, each performed in triplicate.

lipoxin transport system [2] = experiment: Irreversible inhibition of [3H]LXA4 influx after pretreatment of neutrophils with sulfhydryl-reactive agents; assay type: cell-based, human
Cl-/HCO3- exchanger = settings: cited from earlier work
sulfate carrier = settings: cited from earlier work
lipoxin transport system [3] = experiment: [3H]LXA4 influx into human neutrophils (unidirectional tracer flux); settings: for final [3H]LXA4 uptake (combined data) / initial [3H]LXA4 influx rate (combined data): combined data: Control, 0.4 mM SITS, 1 mM probenecid, Na+-free medium, high K+ medium; for effect on [3H]LXA4 influx: probenecid 1 mM, SITS 0.4 mM
[4] = test system: H+ +lactate- cotransporter; settings: cited from earlier work
neutrophils = experiment: Phagocytosis of opsonized sheep red blood cells by neutrophils; assay type: cell-based, human; settings: 100 nM or 1000 nM, pH 7.4, 37° C., 30 minutes
Procedure: Neutrophils were prepared as described in the general methodology and suspended at a concentration of 10×10^6 -15×10^6 cells/ml in Hepes Hanks buffer, pH 7.4, supplemented with 1 mg/ml BSA, 1 mg/ml glucose, 0.5 mM MgCl2 and 1.0 mM CaCl2 --2H2 O.
The sheep red blood cells (SRBCs) were prepared by washing the cells with 1× veronal-buffered saline (VBS), incubating the cells with a 1:500 dilution of rabbit anti-SRBC IgG antibody at 37° C. for 15 minutes, centrifuging the cells at 2000 rpm for 5 minutes at 4° C. and washing the cells twice with 1×VBS. SRBCs were resuspended at a final concentration of 10×10^8 cells/ml.
Each component was pipetted separately to the bottom of a 12×75 mm test tube to allow thorough mixing of the components.
To each 100 μl mixture was added 15 μl of opsonized SRBCs to start the phagocytosis reaction. The tubes were vortexed and placed in a 37° C. incubator for 30 minutes. After 30 minutes, the tubes were placed on ice to stop the reaction.
Non-phagocytosed SRBCs were lysed by adding 1.0 ml of 0.83% NH4 Cl to each tube, with shaking, and centrifuging the tubes quickly at 1500 rpm for 3 minutes. The supernatant was removed and the pellets were resuspended in 30 gl of PBS. The 30 μl solution was placed onto a polylysine-coated microscope slide and after 15 minutes the excess solution was removed from the slide. The cells on the slide were fixed with 1% glutaraldehyde for 5 minutes and then the excess glutaraldehyde was removed. The cells were stained with Giemsa Stain by immersing the slide in the stain for 25 minutes, rinsing the slide with water and allowing the slide to dry overnight.
The slides were examined with a light microscope at 100×power. SRBCs which were phagocytosed by neutrophils were visible as yellow cells within blue-stained neutrophils. The results for each reaction were expressed as a phagocytic index, representing the number of SRBCs phagocytosed per 100 neutrophils. […]

protein kinase C (PKC) = settings: about 10 nM; cited from earlier work
[5] = nM levels; cited from earlier work
human neutrophils [6] = experiment: [3H]LXA4 methyl ester influx into human neutrophils; assay type: cell-based
Procedure: Incubations were performed at 37° C. in capped, plastic tubes (Falcon Plastics, Oxnard, Calif.) under various experimental conditions (neutrophils 15-20×10^6 /ml). […] At stated intervals, duplicate aliquots of the cell suspensions were layered onto 0.5 ml of silicone oil (Versilube F-5, General Electric Corp., Waterford, N.Y.) contained in 1.5 ml plastic tubes and centrifuged for 1 min at 8,000 g in a microcentrifuge (Beckman Instruments, Fullerton, Calif.).
The aqueous and oil phases were aspirated and discarded. […] Influx is expressed here as fmol/10^6 cells/min whereas flux rates in all previous work from our laboratory (L.S.) have been reported in meq/liter of cell water.min.
as §1

[7] = test system: unstimulated human erythrocytes; experiment: [3H]LXA4 uptake into erythrocytes; assay type: cell-based; settings: 0.5 mM DISA, 5 nM LXA4
Procedure: Red Blood Cells (RBC): RBC were obtained directly from the heparinized blood of normal human donors. During repeated (four) washing steps, the uppermost portion of the cell pellets was aspirated and discarded to remove residual minor contamination of buffy coat cells.
(§2) Human red cells, lymphocytes, and platelets were isolated from peripheral blood as described under Methods. Undifferentiated HL-60 cells were grown in culture according to standard protocols. Differentiated HL-60 cells were obtained by exposing cells to 1 μM retinoic acid for 5 days in culture. After harvesting and isolation, all cells were kept in the standard medium for 1 hour at 37° C. prior to assay. […] Results represent the means±SEM of three-four separate experiments for each cell type.

[8] = test system: unstimulated human lymphocytes; experiment: [3H]LXA4 uptake into lymphocytes; assay type: cell-based; settings: 0.5 mM DISA, 5 nM LXA4
Procedure: Lymphocvtes: The lymphocyte-rich interface layer was taken at the Ficoll-Hypaque gradient step of the neutrophil purification procedure. Platelets were removed by slow-speed centrifugation (see below) and contaminating monocytes and neutrophils by adherence to plastic Petri dishes for 1 hour at 37 ° C.
as §2

[9] = test system: unstimulated human platelets; experiment: [3H]LXA4 uptake into platelets; assay type: cell-based; settings: 0.5 mM DISA, 5 nM LXA4
Procedure: Platelets: Platelets were purified to homogeneity from acid citrate dextrose-treated blood according to established protocols (Romano, M. and Serhan, C. N. (1992) Biochemistry 31:8269-8277).
as §2

[10] = test system: undifferentiated HL-60 cells; experiment: [3H]LXA4 uptake into undifferentiated HL-60 cells; assay type: cell-based, human; settings: 0.5 mM DISA, 5 nM LXA4
Procedure: (§3) HL-60 Cells: HL-60 cells were seeded into RPMI medium supplemented with 100 U/ml penicillin, 100 μg/ml streptomycin, and 10% fetal calf serum (Hyclone, Logan, Utah) and grown at 37° C. in 250 ml flasks in a 5% CO2 /95% air atmosphere. Cells were induced to differentiate toward a neutrophil-like phenotype by exposure to 1 μM retinoic acid for 5 days.
as §2

[11] = test system: retinoic acid-induced HL-60 cells; experiment: [3H]LXA4 uptake into retinoic acid-induced HL-60 cells; assay type: cell-based, human; settings: 0.5 mM DISA, 5 nM LXA4
Procedure: as §3, §2

human neutrophils [12] = settings: 500 µM

SMILES: O=C(O)c1cc[c]([Hg+])cc1.[OH-] [pHMB, p-hydroxymercuribenzoate]
effect on binding of lipoxin to specific receptors [1]: not inhibitable
% Inhibition of Transport (irreversible) (lipoxin transport system [2]): ~ 65% and 66 ± 4%
effect on Cl-/HCO3- exchange (Cl-/HCO3- exchanger): resistant

SMILES: CCCN(CCC)S(=O)(=O)c1ccc(C(=O)O)cc1 [probenecid]
sensitivity of the sulfate carrier (sulfate carrier): very sensitive
final [3H]LXA4 uptake (combined data) (lipoxin transport system [3]; 5 nM LXA4): 7.26±0.26 fmol/10^6 cells
initial [3H]LXA4 influx rate (combined data) (lipoxin transport system [3]; 5 nM LXA4): 0.57±0.09 fmol/10^6 cells/min
effect on [3H]LXA4 influx (lipoxin transport system [3]): no apparent impact; also recorded: not inhibited

SMILES: CCN1C(=O)C=CC1=O [NEM, N-ethylmaleimide]
effect on H+ +lactate- cotransport / lactic acid fluxes [4]: completely blocked
effect of SH-reactive compounds on [3H]LXA4 influx (lipoxin transport system [3]; 1 mM NEM, 0.4 mM iodoacetate): lacked efficacy; also recorded: do not inhibit

SMILES: CC(=O)Nc1ccc(C=Cc2ccc(N=C=S)cc2S(=O)(=O)O)c(S(=O)(=O)O)c1 [SITS, 4-acetamido-4'-isothiocyanostilbene-2,2'-disulfonic acid]
sensitivity of the sulfate carrier (sulfate carrier): very sensitive
final [3H]LXA4 uptake (combined data) (lipoxin transport system [3]; 5 nM LXA4): 7.26±0.26 fmol/10^6 cells
initial [3H]LXA4 influx rate (combined data) (lipoxin transport system [3]; 5 nM LXA4): 0.57±0.09 fmol/10^6 cells/min
effect on [3H]LXA4 influx (lipoxin transport system [3]): no apparent impact; also recorded: not inhibited

SMILES: CCCCC[C@H](O)[C@H](O)/C=C/C=C/C=C\C=C\[C@@H](O)CCCC(=O)O [LXB4, lipoxin B4]
effect on neutrophil phagocytosis, phagocytic index (neutrophils): inhibit phagocytosis
effect on PKC activity (protein kinase C (PKC)): enhance
vasodilation [5]: elicit prompt vasodilation

effect on binding of lipoxin to specific receptors [1]: not inhibitable
[3H]LXA4 Binding, non-specific, in presence of drug ([1]; 0.5 mM drug, + unlabeled LXA4 0.3 μM): 0.41 ± 0.05 fmol/10^6 cells
[3H]LXA4 Binding, total, in presence of drug ([1]; 0.5 mM drug, no unlabeled LXA4): 1.23 ± 0.08 fmol/10^6 cells
IC50 (lipoxin transport system [3]; read-out: K0.5, concentration at which 50% of lipoxin transport is inhibited, drug 0-500 μM, uptake at 10 and 20 min, Michaelis-Menten inhibition kinetics): 12 ± 2 µM
SMILES: O=C(O)c1cc(I)cc(I)c1O [DISA, 3,5-diiodo-salicylic acid]
[3H]LXA4 ME Influx in presence of drug (human neutrophils [6]; 0.5 mM drug): 481 ± 170 fmol/10^6 cells/min
effect of drugs on [3H]LXA4 ME influx (human neutrophils [6]; DISA 0.5 mM, PCP 0.4 mM, mersalyl 0.5 mM): completely resistant
[3H]LXA4 Uptake Rate in the presence of DISA [7]: 0.0019 ± 0.0008 fmol/10^6 cells/min
[3H]LXA4 Uptake Rate in the presence of DISA [8]: 0.0053 ± 0.0036 fmol/10^6 cells/min
[3H]LXA4 Uptake Rate in the presence of DISA [9]: -0.0005 ± 0.0015 fmol/10^6 cells/min
[3H]LXA4 Uptake Rate in the presence of DISA [10]: 0.12 ± 0.02 fmol/10^6 cells/min
[3H]LXA4 Uptake Rate in the presence of DISA [11]: 0.08 ± 0.02 fmol/10^6 cells/min
efflux final value (relative cell content, combined data set) (human neutrophils [12]): 0.46±0.02
efflux rate coefficient (combined data set) (human neutrophils [12]): 0.098 ± 0.008 min⁻¹
inhibition of FMLP-enhanced [3H]LXA4 uptake (lipoxin transport system [3]; 100 nM FMLP + DISA): completely sensitive to inhibition
inhibition of PMA-induced enhancement of [3H]LXA4 influx (lipoxin transport system [3]; 100 nM PMA + DISA): competely sensitive to inhibition
[3H]LXA4 uptake by 1 min of incubation (lipoxin transport system [3]; 0.5 mM DISA): 2.9 fmol/10^6 cells
effect on transport system-mediated component of uptake (lipoxin transport system [3]; 0.5 mM DISA): completely blocks; also recorded: markedly sensitive; also recorded: blocked
slope of straight-line fit of [3H]LXA4 uptake in presence of drug (lipoxin transport system [3]; 0.5 mM DISA, 5 nM LXA4, not distinguishable from zero): 0.0046±0.0051 fmol/10^6 cells/min
cell-associated [3H]LXA4, average of all data points (lipoxin transport system [3]; 0.5 mM DISA, 1-30 min): 2.88 fmol/10^6 cells
inhibition of [3H]LXA4 influx (lipoxin transport system [3]; 0.5 mM drug): > 80%
effect on uptake of [3H]LXA4 (lipoxin transport system [3]; each at 0.2-0.5 mM): inhibited the uptake
